Values joined by “and” are separate entries in the source; they are usually repeats but may differ in a detail not shown here. Identical values can stand only once. Counter-ions that a name gives are not always drawn.
Key:
[1] = molecular target: T1, 5-HT7 receptor (Homo sapiens, UniProt P34969); experiment: Functional antagonist assay: measurement of cAMP formation; type: cell-based; details: 5-HT7-expressing AV-12 cells; for Kb: antagonist potency
T1 construct: expressed in transfected cells
Procedure: For cAMP functional assays, the 5-HT7-expressing cells from above are grown in 150 cm^2 flasks and processed essentially as follows. The media is aspirated from the flasks and cells are washed with 1 mL PBS. The cells are released from monolayer with enzyme free cell dissociation solution (Specialtymedia CAT#S-004-B, www.Chemicon.com) and resuspended in complete media. A sample of the cells is counted and the remainder is centrifuged as above for 3 min. The resulting cell pellet is resuspended in PBS at a concentration of 1×10^6 cells per mL and used directly in the cAMP assay as described.
The 5-HT7 receptor is functionally coupled to a G-protein as measured by the ability of serotonin and serotonergic drugs to stimulate cAMP production in CHO cells transfected with the 5-HT7 receptor. (Ruat, et al., Proceedings of the National Academy of Sciences (USA), 90:8547-8551, 1993.) Accordingly, functional receptor activity can be measured by measuring adenylate cyclase activity using a commercially available cell-based, homogeneous, time resolved fluorescence assay kit, as for example the kit produced by Cisbio-US, Inc. (Bedford, Mass.). Essentially, and using the protocol and reagents provided by the manufacturer, approximately 20,000 human 5-HT7 receptor-expressing AV-12 cells (as described above) are used with test compound dose concentrations in the range described for the binding assay. […] A cAMP standard curve is also run in every experiment. After the assay plates are read in an Envision™ instrument (Perkin-Elmer, Wellesley Mass.), the data are normalized to the standard curve and converted to percent inhibition for data analysis as described above for the receptor binding assay results. The Kb (nM) is calculated as a measure of the antagonist potency of the compound. Preferred compounds are those having percent inhibition>75%. Still other preferred compounds are those having Kb<50 nM.

[2] = molecular target: T1, 5-HT7 receptor; experiment: 5-HT7 receptor affinity: [3H]5-HT radioligand binding assay; details: [3H]5-HT competition, membranes of AV-12 cells
Procedure: Membranes for affinity and antagonist activity assays are prepared essentially as follows. AV-12 cells, stably expressing the 5-HT7 receptor, are grown as a monolayer in 5×T-150 flasks in DMEM/F12 (3:1) 5% FBS, 20 mM HEPES, […] geneticin, 50 mg/mL tobramycin. After growing to 90% confluence the media is removed and replaced with Hybritech media (a low calcium version of DMEM/F12 media having 11 mg/L calcium) containing 2% horse serum, […] dextran sulfate, 1 mg/mL nucellin, 1 mg/mL human transferrin (partially iron saturated), 50 mg/mL tobramycin, 20 mM HEPES, […] geneticin, 0.04% pluronic F68. The cells are grown overnight to condition the media. The next morning the conditioned media (−150 mL total) is removed and set aside in a sterile container. The cells are trypsinized and collected in the conditioned media. […]
To prepare membranes, the above pellets are resuspended in ice-cold Tris buffer (20 mM Tris HCl, pH 7.4 at 23° C., 5 mM EDTA) and homogenized with a Wheaton tissue grinder. […] Protein concentrations are determined by the method of Bradford. […]
(§1) [^3H] […] The reactions are incubated at room temperature for 3 hr. and then counted in a Trilux Microbeta™ scintillation counter to detect receptor-bound radioligand. Binding data is analyzed by computer-assisted 4 parameter fit analysis (ID Business Solutions Ltd, Guildford, Surrey, UK). […]

[3] = molecular target: T2, 5-HT1D (Homo sapiens, UniProt P28221); experiment: Radioligand binding assay, 5-HT1D subtype
T2 construct: expressed in transfected cells
Procedure: as §1
(§2) Affinity for other serotonin receptor subtypes as well as for alpha 1 & 2 adrenergic receptors can readily be determined by modification of the above described radioligand receptor binding assay using membranes derived from cells stably expressing the desired receptor subtype including the 5-HT1A, 5-HT1B, and 5-HT1D subtypes, as well as the 5-HT2A, 5-HT2B, 5-HT2C, 5-HT4, 5-HT5, and 5-HT6 receptor subtypes. […]

[4] = molecular target: T3, 5-HT6 (Homo sapiens, UniProt P50406); experiment: Radioligand binding assay, 5-HT6 subtype
T3 construct: expressed in transfected cells
Procedure: as §1, §2

[5] = molecular target: T4, 5-HT2A (Homo sapiens, UniProt P28223); experiment: Radioligand binding assay, 5-HT2A subtype
T4 construct: expressed in transfected cells
Procedure: as §1, §2

[6] = molecular target: T5, 5-HT2B (Homo sapiens, UniProt P41595); experiment: Radioligand binding assay, 5-HT2B subtype
T5 construct: expressed in transfected cells
Procedure: as §1, §2

[7] = molecular target: T6, 5-HT1B (Homo sapiens, UniProt P28222); experiment: Radioligand binding assay, 5-HT1B subtype
T6 construct: expressed in transfected cells
Procedure: as §1, §2

[8] = molecular target: T7, 5-HT5 (Homo sapiens, UniProt P47898); experiment: Radioligand binding assay, 5-HT5 subtype
T7 construct: expressed in transfected cells
Procedure: as §1, §2

[9] = molecular target: T8, 5-HT2C (Homo sapiens, UniProt P28335); experiment: Radioligand binding assay, 5-HT2C subtype
T8 construct: expressed in transfected cells
T8 sequence (P28335 33-458): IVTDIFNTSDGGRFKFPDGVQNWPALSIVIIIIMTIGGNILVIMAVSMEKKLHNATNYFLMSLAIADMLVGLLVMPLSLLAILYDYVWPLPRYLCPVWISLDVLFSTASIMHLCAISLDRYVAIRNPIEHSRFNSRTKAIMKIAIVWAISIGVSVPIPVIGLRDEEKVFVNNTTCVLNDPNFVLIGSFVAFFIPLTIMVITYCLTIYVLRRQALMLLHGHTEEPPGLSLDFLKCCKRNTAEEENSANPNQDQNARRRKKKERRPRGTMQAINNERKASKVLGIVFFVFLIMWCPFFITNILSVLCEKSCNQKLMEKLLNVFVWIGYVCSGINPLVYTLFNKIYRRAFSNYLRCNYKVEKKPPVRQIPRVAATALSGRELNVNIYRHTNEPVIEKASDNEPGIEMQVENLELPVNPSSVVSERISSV
Procedure: as §1, §2

[10] = molecular target: T9, 5-HT4 (Homo sapiens, UniProt Q13639); experiment: Radioligand binding assay, 5-HT4 subtype
T9 construct: expressed in transfected cells
Procedure: as §1, §2

[11] = molecular target: T10, 5-HT1A (Homo sapiens, UniProt P08908); experiment: Radioligand binding assay, 5-HT1A subtype
T10 construct: expressed in transfected cells
T10 sequence (P08908 1-422): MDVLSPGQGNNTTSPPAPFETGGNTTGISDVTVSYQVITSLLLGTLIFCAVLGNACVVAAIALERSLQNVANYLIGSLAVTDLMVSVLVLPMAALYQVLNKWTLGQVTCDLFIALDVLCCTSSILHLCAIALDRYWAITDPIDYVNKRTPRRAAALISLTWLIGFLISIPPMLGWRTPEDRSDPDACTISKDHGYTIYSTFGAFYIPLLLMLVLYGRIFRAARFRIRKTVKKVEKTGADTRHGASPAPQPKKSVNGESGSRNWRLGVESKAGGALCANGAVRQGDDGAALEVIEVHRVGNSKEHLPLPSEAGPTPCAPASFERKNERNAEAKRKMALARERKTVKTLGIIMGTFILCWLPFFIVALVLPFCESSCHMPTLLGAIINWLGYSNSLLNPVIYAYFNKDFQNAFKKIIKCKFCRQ
Procedure: as §1, §2

[12] = molecular target: alpha 1 adrenergic; experiment: Radioligand binding assay, alpha 1 adrenergic
Procedure: as §1, §2

[13] = molecular target: alpha 2 adrenergic; experiment: Radioligand binding assay, alpha 2 adrenergic
Procedure: as §1, §2

[14] = system: male Harlan Sprague-Dawley rats; experiment: Animal model of dural plasma protein extravasation (PPE); type: in vivo, rat
Source text: The dural plasma protein extravasation model is an established model for migraine. The ability of a test compound to reduce extravasation of plasma proteins into the dura under assay conditions is considered indicative of the compound's ability to reduce or prevent the dural inflammation thought to be symptomatic of migraine. (see Johnson, K. W., et al., Neuroreport, 8 (1997) 2237-2240.)
To assay compounds for their ability to reduce or prevent dural plasma protein extravasation, male Harlan Sprague-Dawley rats (250-350 g) are anesthetized with sodium pentobarbital (65 mg/kg, i.p.) and placed in a stereotaxic frame (David Kopf Instruments) with the incisor bar set at −2.5 mm. Following a midline sagittal scalp incision, 2 pairs of bilateral holes are drilled through the skull (3.2 mm posterially, 1.8 and 3.8 mm laterally, all coordinates referenced to bregma). […]
The amount of FITC-BSA for each sample is quantified with a fluorescence microscope (Zeiss) equipped with a grating monochromator, a spectrophotometer, and a computer driven stage. Fluorescence measurements are taken at 25 points in a 5×5 grid in 500 μm steps on each dural sample with an excitation wavelength of approximately 490 nm and emission intensity measured at approximately 535 nm. The mean and standard deviation of the 25 measurements are determined. […]

T1 sequence (P34969 whole entry): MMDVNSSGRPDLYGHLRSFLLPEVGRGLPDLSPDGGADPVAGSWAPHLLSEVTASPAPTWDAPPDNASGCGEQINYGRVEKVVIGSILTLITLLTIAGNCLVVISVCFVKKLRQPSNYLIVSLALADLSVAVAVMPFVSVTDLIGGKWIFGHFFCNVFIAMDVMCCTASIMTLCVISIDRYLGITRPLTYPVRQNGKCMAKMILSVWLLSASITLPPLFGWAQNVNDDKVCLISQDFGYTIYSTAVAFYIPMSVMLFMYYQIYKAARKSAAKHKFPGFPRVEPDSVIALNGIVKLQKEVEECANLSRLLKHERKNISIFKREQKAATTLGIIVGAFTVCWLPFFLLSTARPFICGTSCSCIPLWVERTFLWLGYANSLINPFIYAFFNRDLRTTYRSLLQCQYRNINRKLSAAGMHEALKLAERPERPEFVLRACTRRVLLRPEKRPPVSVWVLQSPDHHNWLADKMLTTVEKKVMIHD
T5 sequence (P41595 whole entry, species assumed): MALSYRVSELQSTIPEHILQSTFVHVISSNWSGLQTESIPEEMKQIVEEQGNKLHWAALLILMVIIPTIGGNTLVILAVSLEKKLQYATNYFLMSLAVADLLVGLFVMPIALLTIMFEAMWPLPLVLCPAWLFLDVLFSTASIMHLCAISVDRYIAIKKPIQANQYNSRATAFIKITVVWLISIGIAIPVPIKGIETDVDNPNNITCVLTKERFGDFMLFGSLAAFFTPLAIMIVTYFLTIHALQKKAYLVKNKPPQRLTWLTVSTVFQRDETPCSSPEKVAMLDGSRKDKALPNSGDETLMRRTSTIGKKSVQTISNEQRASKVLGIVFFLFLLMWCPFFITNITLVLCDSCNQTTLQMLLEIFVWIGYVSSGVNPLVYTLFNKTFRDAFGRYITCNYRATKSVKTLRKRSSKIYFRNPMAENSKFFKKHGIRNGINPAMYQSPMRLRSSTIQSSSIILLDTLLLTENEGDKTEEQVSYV
T9 sequence (Q13639 whole entry, species assumed): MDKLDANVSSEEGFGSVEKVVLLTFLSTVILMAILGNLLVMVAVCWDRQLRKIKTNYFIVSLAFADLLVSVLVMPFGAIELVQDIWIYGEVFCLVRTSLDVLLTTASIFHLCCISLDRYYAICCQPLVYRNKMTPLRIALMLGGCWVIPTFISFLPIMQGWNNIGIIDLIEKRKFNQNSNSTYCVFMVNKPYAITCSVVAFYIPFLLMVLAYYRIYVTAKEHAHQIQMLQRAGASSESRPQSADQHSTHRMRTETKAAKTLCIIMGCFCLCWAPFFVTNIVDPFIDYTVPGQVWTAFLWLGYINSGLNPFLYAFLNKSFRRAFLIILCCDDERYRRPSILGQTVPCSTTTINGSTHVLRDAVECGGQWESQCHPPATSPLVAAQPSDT
T3 sequence (P50406 whole entry, species assumed): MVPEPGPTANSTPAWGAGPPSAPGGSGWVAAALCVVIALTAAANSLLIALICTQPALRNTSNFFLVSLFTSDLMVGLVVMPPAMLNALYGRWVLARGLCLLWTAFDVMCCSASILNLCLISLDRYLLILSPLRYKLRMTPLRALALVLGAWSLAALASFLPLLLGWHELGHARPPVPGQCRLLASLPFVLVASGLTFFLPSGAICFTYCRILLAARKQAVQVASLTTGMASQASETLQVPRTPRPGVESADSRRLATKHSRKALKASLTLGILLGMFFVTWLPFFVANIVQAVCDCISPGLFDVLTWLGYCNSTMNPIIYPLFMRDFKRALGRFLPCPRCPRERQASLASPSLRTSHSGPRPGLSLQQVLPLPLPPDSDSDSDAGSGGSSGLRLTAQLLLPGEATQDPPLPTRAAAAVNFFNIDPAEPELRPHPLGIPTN
T4 sequence (P28223 whole entry, species assumed): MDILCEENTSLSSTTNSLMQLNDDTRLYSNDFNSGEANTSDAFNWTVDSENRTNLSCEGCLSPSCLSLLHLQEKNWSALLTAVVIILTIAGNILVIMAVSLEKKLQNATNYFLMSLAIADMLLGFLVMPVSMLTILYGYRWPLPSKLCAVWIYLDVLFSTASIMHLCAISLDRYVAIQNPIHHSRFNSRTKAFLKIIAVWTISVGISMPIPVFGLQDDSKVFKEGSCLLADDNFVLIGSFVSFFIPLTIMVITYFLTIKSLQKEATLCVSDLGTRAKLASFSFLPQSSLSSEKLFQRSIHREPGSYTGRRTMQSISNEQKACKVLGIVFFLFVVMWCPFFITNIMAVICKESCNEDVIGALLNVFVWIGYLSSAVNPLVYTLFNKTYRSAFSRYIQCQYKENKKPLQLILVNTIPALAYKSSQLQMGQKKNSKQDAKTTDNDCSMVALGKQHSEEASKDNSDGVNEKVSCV
T6 sequence (P28222 whole entry, species assumed): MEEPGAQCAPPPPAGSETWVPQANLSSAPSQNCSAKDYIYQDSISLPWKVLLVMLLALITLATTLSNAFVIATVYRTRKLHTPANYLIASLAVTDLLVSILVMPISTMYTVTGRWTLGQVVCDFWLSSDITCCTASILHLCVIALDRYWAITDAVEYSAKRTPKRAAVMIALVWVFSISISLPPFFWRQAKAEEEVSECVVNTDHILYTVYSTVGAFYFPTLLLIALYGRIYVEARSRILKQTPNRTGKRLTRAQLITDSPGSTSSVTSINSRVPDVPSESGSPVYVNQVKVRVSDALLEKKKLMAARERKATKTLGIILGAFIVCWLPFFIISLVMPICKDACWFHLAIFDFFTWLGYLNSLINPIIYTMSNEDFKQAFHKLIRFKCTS
T7 sequence (P47898 whole entry, species assumed): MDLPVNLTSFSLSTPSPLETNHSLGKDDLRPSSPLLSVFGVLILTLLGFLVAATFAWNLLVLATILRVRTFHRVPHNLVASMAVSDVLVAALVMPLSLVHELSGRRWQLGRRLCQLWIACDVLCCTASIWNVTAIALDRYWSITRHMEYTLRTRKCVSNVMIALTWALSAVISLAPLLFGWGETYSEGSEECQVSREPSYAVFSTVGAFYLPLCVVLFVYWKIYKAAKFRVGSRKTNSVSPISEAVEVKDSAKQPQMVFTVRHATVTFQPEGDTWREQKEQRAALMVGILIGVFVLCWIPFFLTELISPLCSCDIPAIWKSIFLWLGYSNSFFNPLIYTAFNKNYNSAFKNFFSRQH
T2 sequence (P28221 whole entry, species assumed): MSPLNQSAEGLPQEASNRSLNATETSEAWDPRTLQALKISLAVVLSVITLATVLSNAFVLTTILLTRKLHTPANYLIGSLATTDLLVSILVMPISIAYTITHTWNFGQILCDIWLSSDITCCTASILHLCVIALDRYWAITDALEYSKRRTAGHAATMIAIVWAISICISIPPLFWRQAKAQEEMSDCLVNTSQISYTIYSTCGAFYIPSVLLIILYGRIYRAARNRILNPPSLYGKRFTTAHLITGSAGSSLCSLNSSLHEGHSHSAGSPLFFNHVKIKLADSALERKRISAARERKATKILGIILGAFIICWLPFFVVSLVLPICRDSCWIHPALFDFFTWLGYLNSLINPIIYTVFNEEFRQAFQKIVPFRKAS

In the case of `CN(CCN1CCN(c2nccnc2-c2ccc(F)cc2)CC1)S(=O)(=O)c1ccc(F)cc1.Cl` [Example 4, 4-Fluoro-N-{2-[3′-(4-fluoro-phenyl)-2,3,5,6-tetrahydro-[1,2′]bipyrazinyl-4-yl]-ethyl}-N-methyl-benzenesulfonamide hydrochloride], the antagonist character [1] is reported as “full antagonists”, the inhibition [1] is reported as “about 128%” and the Kb [1] is reported as roughly 24 nM.
In the case of `CN(CCN1CCN(c2nccnc2-c2ccc(F)cc2)CC1)S(=O)(=O)c1cn(C)cn1` [Example 17, 1-Methyl-1H-imidazole-4-sulfonic acid {2-[3′-(4-fluoro-phenyl)-2,3,5,6-tetrahydro-[1,2′]bipyrazinyl-4-yl]-ethyl}-methyl-amide hydrochloride], the Ki [2] is reported as ~33.5 nM and 33.5 nM, the Ki [3] is reported as greater than 2320 nM and the Ki [4] is reported as greater than 5830 nM. For the same compound, the Ki [5] was greater than 7470 nM, the Ki [6] was greater than 6810 nM and the Ki [7] was greater than 3580 nM. It also gave a Ki [8] greater than 6710 nM, a Ki [9] greater than 8360 nM and a Ki [10] greater than 6310 nM. It also gave a Ki [11] of 1500 nM, a Ki [12] greater than 1770 nM and a Ki [13] greater than 2430 nM.
With `COCc1ccc(-c2nccnc2N2CCN(CCN(C)S(=O)(=O)c3cnn(C)c3)CC2)cc1.Cl` [Example 25, 1-Methyl-1H-pyrazole-4-sulfonic acid {2-[3′-(4-methoxymethyl-phenyl)-2,3,5,6-tetrahydro-[1,2′]bipyrazinyl-4-yl]-ethyl}-methyl-amide hydrochloride] the Ki [2] was ~19.4 nM and 19.4 nM, the Ki [3] was 1270 nM and the Ki [4] was greater than 5830 nM. The antagonist character [1] was “full antagonists”, the Kb [1] was roughly 8.5 nM and the Ki [5] was greater than 7470 nM. The Ki [6] was greater than 6810 nM, the Ki [7] was 3240 nM and the Ki [8] was 3320 nM. It also gave a Ki [9] greater than 8360 nM, a Ki [10] greater than 4120 nM and a Ki [11] of 2070 nM. For the same compound, the Ki [12] was 2330 nM, the “ratio of extravasation, stimulated side over unstimulated side” value ([14]; at ID100 of 1 mg/Kg, saline controls about 2.0) was “about 1.1” and the ID100 ([14]; rat dural plasma protein extravasation, route not given) was 1 mg/kg. For the same compound, the Ki [13] was greater than 5290 nM.

— patent US8048884B2, “Substituted piperazinyl pyrazines and pyridines as 5-HT7 receptor antagonists” (Eli Lilly and Company, priority 2007, dated 2011)
